Results published in patent EP3820512B1, “IMMUNOMODULATING COMPOSITIONS COMPRISING OLIGOSACCHARIDE DERIVATIVES” (priority 2018, dated 2020).

How the values were obtained:
[1] = test system: hyperoxia induced BPD in mouse pups; experiment: Hyperoxia-exposed BPD mouse model (newborn pups); format: in vivo
Text: Neonatal mice and humans undergo similar stages of lung development but differ with respect to the duration of each stage and its temporal relationship to gestational age. The lungs of the mouse born at term are in the saccular stage and are surfactant sufficient; this can be considered somewhat akin to a human preterm neonate in the same stage of lung development that has been exposed to a full complement of antenatal steroids (which is known to enhance surfactant production). In terms of mimicking the human condition, the most successful hyperoxia models are those that limit exposure to hyperoxia to the saccular stage of pulmonary development. The mouse BPD model involves exposing newborn mice (postnatal day 1 or PN1) to 100% oxygen till PN4 followed by recovery in room air (RA) for another 10 days.
After the recovery period, their lungs were harvested and processed for quantitative PCR, western blotting, histopathology and ELISA.
After the recovery period, their lungs were harvested and processed for quantitative PCR, western blotting and histopathology and ELISA.
BPD is characterized by large simplified alveoli, inflammation, increased cell death, decreased cell proliferation, dysmorphic capillary configuration, and variable interstitial cellularity and/or fibroproliferation. […] This is determined by measuring the alveolar chord length, septal thickness and radial alveolar count (RAC). In BPD, the alveolar area increases which is characterized by increase in the diameter of the alveolar sacs, the septa become thickened (thus interfering in gaseous exchange) and the RAC, a parameter used to assess the complexity of terminal respiratory unit by pulmonologists, decreases as a result of arrested lung development.

TLR6 = biological target: T1, TLR6 (Homo sapiens, UniProt Q9Y2C9); experiment: TLR6 stimulation: IL-6 ELISA in hPBMC with TLR6 ligand Pam2CSK4; format: cell-based; conditions: in combination with Pam2CSK4, hPBMC, 24h
T1 construct: endogenous in cells; host or cells: hPBMC (human peripheral blood monocytes)
T1 sequence (Q9Y2C9 32-796): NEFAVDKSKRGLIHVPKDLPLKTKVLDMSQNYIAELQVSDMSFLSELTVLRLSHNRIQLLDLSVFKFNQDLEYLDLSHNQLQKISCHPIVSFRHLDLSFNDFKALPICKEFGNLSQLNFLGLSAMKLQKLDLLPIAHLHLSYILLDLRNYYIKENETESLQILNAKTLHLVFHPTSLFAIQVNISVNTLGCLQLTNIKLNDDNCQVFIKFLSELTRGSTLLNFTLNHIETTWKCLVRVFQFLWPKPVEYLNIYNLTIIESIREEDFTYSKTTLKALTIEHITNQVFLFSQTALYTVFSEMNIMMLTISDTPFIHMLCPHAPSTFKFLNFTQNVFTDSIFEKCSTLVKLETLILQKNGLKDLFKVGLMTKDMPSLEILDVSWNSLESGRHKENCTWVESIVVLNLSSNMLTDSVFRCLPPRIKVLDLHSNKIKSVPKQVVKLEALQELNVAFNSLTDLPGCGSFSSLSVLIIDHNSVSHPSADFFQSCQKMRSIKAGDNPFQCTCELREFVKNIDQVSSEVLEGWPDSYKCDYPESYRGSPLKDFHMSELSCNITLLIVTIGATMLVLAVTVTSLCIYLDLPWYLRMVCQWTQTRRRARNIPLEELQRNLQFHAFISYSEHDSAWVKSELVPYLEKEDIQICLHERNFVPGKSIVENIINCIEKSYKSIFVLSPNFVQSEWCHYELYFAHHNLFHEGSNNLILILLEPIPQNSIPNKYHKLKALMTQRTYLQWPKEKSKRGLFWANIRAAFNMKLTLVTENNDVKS
T1 sequence (O60603 21-784 partner): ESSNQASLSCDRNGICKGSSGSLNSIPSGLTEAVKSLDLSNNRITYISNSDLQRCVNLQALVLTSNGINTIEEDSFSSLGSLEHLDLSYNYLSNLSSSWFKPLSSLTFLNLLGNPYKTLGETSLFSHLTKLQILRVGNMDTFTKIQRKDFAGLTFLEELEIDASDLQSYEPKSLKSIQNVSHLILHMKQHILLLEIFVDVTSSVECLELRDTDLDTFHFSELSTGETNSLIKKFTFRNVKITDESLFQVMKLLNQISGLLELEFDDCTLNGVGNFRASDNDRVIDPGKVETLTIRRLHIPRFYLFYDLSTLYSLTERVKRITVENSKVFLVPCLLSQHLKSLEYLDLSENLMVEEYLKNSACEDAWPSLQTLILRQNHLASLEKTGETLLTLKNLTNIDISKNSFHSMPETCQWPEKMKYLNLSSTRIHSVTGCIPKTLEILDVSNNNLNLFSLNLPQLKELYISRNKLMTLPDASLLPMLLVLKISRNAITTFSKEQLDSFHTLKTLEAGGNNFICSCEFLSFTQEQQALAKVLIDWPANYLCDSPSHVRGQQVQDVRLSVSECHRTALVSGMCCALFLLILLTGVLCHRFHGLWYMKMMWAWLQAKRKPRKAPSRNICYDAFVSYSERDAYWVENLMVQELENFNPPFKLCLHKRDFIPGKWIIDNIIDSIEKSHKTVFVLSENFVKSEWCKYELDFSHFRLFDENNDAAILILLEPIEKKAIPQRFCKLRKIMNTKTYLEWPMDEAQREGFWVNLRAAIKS
Method: Compound 8 stimulates the TLR6 activities and upregulates the production of IL-6 cytokine in combination with TLR6 ligand Pam2CSK4 in hPBMC after 24h of treatment as detected by ELISA (FIG. 9).

[2] = test system: LPS induced lung injury in mice; experiment: LPS-induced ALI model; format: in vivo, C57BL/6 mice
Text: Male C57BL/6 mice (Jackson Laboratories,) 12-15 weeks old, 25 - 28 gms, housed up to 5 per cage were used.
The lungs were sectioned for histopathological assessment after H/E staining while the BAL fluid was used to detect total cell counts (neutrophils and macrophages) and measure protein (that exudes by leakage).

[3] = test system: THP-1 (human monocytic) cells; experiment: Cytokine response (IL-1β, TNF-α, IL-10) of THP-1 cells treated with compounds; format: cell-based; conditions: 100-200 µM
Method: When THP-1 (human monocytic) cells were treated with 100-200 µM of compounds 8, 14, 17, 23, 29, and 32, they produced an increased IL-1β and TNF-α response, decreased anti-inflammatory cytokine IL-10 (FIG. 4).

[4] = test system: human peripheral blood monocytes; experiment: IL-10 production in human peripheral blood monocytes; format: cell-based; conditions: after 48 h
TLR2 = biological target: T2, TLR2 (Homo sapiens, UniProt O60603); experiment: TLR2 activity in PMA-stimulated THP-1 monocyte cells, ELISA of cell lysate; format: cell-based; conditions: THP-1 cells
T2 construct: endogenous in cells; host or cells: THP-1 monocyte cells stimulated with PMA
T2 sequence (O60603 21-784): as the sequence (O60603 21-784 partner) above
Method: THP-1 monocyte cells (1×10^5) were stimulated with 200nM of PMA for 48h and treated with different concentrations of test compounds. The TLR2 activity was measured after 24 h from the cell lysate using ELISA.

CC(=O)N[C@H]1[C@H](Oc2ccc([N+](=O)[O-])cc2)O[C@H](CO)[C@@H](O)[C@@H]1O [Compound 8, p-Nitrophenyl 2-acetamido-2-deoxy-β-D-glucopyranoside]
IFN-Y ([1]; 10mg/kg, ELISA (FIG. 26)): decreases | IL-1β ([1]; 10mg/kg, ELISA (FIG. 26)): decreases | IL-6 ([1]; 10mg/kg, ELISA (FIG. 26)): decreases | IL-17 ([1]; 10mg/kg, ELISA (FIG. 26)): decreases | MCP-1 ([1]; 10mg/kg, ELISA (FIG. 26)): decreases | MIP-2 ([1]; 10mg/kg, ELISA (FIG. 26)): decreases | TNF-α ([1]; 10mg/kg, ELISA (FIG. 26)): decreases | anti-inflammatory cytokine IL-10 ([1]; 10mg/kg, ELISA (FIG. 26H)): increase | hyperoxia induced BPD ([1]; IP and IV, saline solution, 5mg/kg or 10 mg/kg on PN2 and PN4 (FIG. 24)): prevent | chord length ([1]; IP injection (FIG. 25)): improvement | radial alveolar count ([1]; IP injection (FIG. 25)): improvement | septal thickness ([1]; IP injection (FIG. 25)): improvement | Inflammatory cytokines in lung tissue and serum ([1]; after injections): decreased | TLR4 inhibition in vivo ([1]; neonatal pups with BPD): inhibit | lung architecture ([1]; saline (IV) and nanosuspension (IN) formulation): restored | production of IL-6 cytokine (TLR6): upregulates | protection against LPS induced lung injury ([2]; IP 10mg/kg at 4h and 12h post LPS, sacrifice after 24 h): significant protection | LPS-induced lung inflammation ([2]; IP injection): ameliorated | IL-1β response [3]: increased | TNF-α response [3]: increased | anti-inflammatory cytokine IL-10 [3]: decreased | IL-10 production ([4]; 0.1-1.0 µM): increase | IL-10 production ([4]; 10-100 µM): decrease | % inhibition over control TLR2 (TLR2; Concentration 1-10 µM): + (+ means that the % of inhibition or activation is in the range of 15-25%) | % inhibition over control TLR2 (TLR2; Concentration 75-100 µM): ++ (++ means that the % of inhibition or activation is in the range of 25-75%)
